Results taken from patent US20110145975A1, “P0WDER-FREE GLOVE WITH STABLE AND FAST ACTING MICROBIAL COATING” (ANSELL LIMITED, priority 2009, published 2011).

Assay type: physicochemical
Excerpt: Several cationic antimicrobial agents are available for incorporation into the antimicrobial coating. The resistances of these cationic antimicrobial agents to degradation vary due to differences in their chemical structure, molecular weight, and species of anions and anionic surfactants that tend to degrade the long lifetime of the antimicrobial coating. […] Mixtures of antimicrobial agents can be used, for example to expand the range of bacteria against which the coating is effective.

Substance: poly(hexamethylene biguanide) chloride
- resistance to degradation: more resistant to degradation than CHG
